Test system: sugar cane bud discs
Experiment: Survival of sugar cane seedlings grown from treated bud discs (greenhouse, then acclimatization)
Assay type: in vivo
Settings: for Number of surviving seedlings: of 648 planted buds per treatment, bud discs immersed 10 seconds in aqueous solution (pyraclostrobin 1 g/l, fipronil 0.8 g/l, fluxapyroxade 1.2 g/l, thiamethoxam 1.5 g/l), counted after 30 to 45 days greenhouse plus 15 days acclimatization, untreated 211; for Increase of survival rate [%]: relative to untreated buds (211 of 648 surviving), same treatment and concentrations as the number of surviving seedlings
Source text: On an area of 0.1 hectares where sugar cane plants were growing with a distance between the rows of 1.5 m, the top part of the 8 months old sugar cane plants was removed by chopping off with a machete in a height of approximately 2 to 2.5 m. The removed top part was discarded. The below, remaining stalks were removed from the field by cutting them off closely above the ground. The stalks were then cut longitudinally into halves in such a manner that the buds were approximately centralized on the halves. From the stalk halves discs of ca. 2 cm of diameter each containing a bud and a part of the respective node were punched off with a punching machine. For each treatment, 648 bud discs were immersed for 10 seconds into an aqueous solution containing either pyraclostrobin (1 g/l; used as the commercial product Comet® of a concentration of 250 g/l of pyraclostrobin) or fipronil (0.8 g/l; used as the commercial product Regent® of a concentration of 800 g/kg of fipronil) or fluxapyroxade (1.2 g/l; used as the commercial product BAS 700 04F of a concentration of 300 g/l) or thiamethoxam (1.5 g/l; used as the commercial product Actara® 250 WG of a concentration of […]). The treated buds were then each placed in individual pots filled with humid coconut fibers. 648 bud discs stayed untreated for comparative reasons and were directly placed in individual pots filled with humid coconut fibers. The pots were placed in a greenhouse, and seedlings were grown from the planted bud discs at 25 to 35° C. and 70 to 80% humidity. While in the greenhouse, the buds/seedlings were watered sufficiently. 30 to 45 days after having been placed in the greenhouse, the surviving seedlings were transferred in an acclimatization area and kept for 15 days. Thereafter they were counted and then transplanted to a field.

| SMILES | Number of surviving seedlings | Increase of survival rate [%] |
| --- | --- | --- |
| CN1COCN(Cc2cnc(Cl)s2)/C1=N\[N+](=O)[O-] [Thiamethoxam, thiamethoxam] | 225 | 6.6 |
| COC(=O)N(OC)c1ccccc1COc1ccn(-c2ccc(Cl)cc2)n1 [Pyraclostrobin, pyraclostrobin] | 391 | 85.3 |
| Cn1cc(C(=O)Nc2ccccc2-c2cc(F)c(F)c(F)c2)c(C(F)F)n1 [Fluxapyroxade, N-(3′,4′,5′-trifluorobiphenyl-2-yl)-3-difluoromethyl-1-methyl-1H-pyrazole-4-carboxamide] | 248 | 17.5 |
| N#Cc1nn(-c2c(Cl)cc(C(F)(F)F)cc2Cl)c(N)c1[S+]([O-])C(F)(F)F (centres unmarked) [Fipronil, fipronil] | 236 | 11.8 |

Reference: US9615503B2, “Method for cultivating sugar cane” (BASF SE, priority 2011, dated 2017)
